These results are taken from US6677316B2, “Adenosine derivatives and methods of administration” (SmithKline Beecham Corporation, priority 1998, dated 2004).

For experiment [1], the target named is T1, human adenosine A1 receptor (Homo sapiens, UniProt P30542).
T1 construct: expressed in transfected cells; host or cells: Chinese hamster ovary (CHO) cells with CRE/SPAP/HYG reporter elements
T1 sequence (P30542 1-326): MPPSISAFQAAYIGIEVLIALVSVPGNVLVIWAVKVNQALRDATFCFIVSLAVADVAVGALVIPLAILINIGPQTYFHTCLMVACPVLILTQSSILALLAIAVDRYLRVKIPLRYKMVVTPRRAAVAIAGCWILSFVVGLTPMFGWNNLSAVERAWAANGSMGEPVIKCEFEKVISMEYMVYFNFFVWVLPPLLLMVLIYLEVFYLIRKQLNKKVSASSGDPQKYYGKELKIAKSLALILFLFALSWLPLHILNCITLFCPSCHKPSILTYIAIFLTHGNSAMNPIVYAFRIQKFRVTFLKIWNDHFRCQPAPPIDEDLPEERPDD
Briefly: Reporter gene assay (CRE/SPAP) in CHO cells, agonist potency relative to NECA, adenosine A1 receptor. The arrangement: key: equipotent concentration ratio, NECA = 1. The format is cell-based. Conditions: ECR = equipotent concentration ratio relative to NECA = 1, inhibition of forskolin-stimulated SPAP production. The method, then: (§1) Reporter Gene Experiments
(§2) Agonist activity was measured in Chinese hamster ovary (CHO) cells containing the CRE/SPAP/HYG (CRE=cyclic AMP response element; HYG=hygromycin resistance; SPAP=secreted placental alkaline phosphatase) reporter gene elements, which upon stimulation of cAMP levels produced SPAP. A cell line was used, which was stably transfected with either the human adenosine A1 receptor or the human adenosine A3 receptor in addition to the above elements. Cells were plated out in 96-well plates in culture medium and incubated at 37° C. for 1 hour. For measurement of potency, agonists were added to the appropriate wells at a concentration range of approximately 10^−10- 10^−5M. 15Min later, cAMP levels were stimulated by addition of a maximal concentration of forskolin. All cells were then incubated for a further 5 hours at 37° C., and cooled to room temperature, after which a substrate for the phosphatase (para-nitrophenol phosphate, pNPP), which is converted by SPAP to a coloured reagent) was then added and the 96-well -plates were read in a plate reader. From these readings, the concentration-dependence of the inhibition by the agonist for forskolin-stimulated SPAP production can be calculated. One of the agonists tested on each 96-well plate was the standard non-selective agonist, N-ethylcarboxamidoadenosine (NECA), and the potency of all test agonists is expressed relative to that of the NECA standard.
(§3) (ECR=equipotent concentration ratio relative to NECA=1)
For orientation: Reporter assays use an easily measured gene product as a stand-in for the process of interest.

Experiment [2] has as its target T2, human adenosine A3 receptor (Homo sapiens, UniProt P0DMS8).
T2 construct: expressed in transfected cells; host or cells: Chinese hamster ovary (CHO) cells with CRE/SPAP/HYG reporter elements
T2 sequence (P0DMS8 1-318): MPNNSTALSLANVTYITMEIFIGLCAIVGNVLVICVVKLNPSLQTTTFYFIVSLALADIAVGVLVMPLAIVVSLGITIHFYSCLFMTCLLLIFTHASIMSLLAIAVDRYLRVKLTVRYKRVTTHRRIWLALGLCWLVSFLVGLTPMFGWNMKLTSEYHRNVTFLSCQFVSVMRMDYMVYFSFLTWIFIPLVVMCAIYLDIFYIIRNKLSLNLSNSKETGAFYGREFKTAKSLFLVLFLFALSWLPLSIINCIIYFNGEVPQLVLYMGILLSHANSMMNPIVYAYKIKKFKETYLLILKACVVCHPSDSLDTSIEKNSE
Briefly: Reporter gene assay (CRE/SPAP) in CHO cells, agonist potency relative to NECA, adenosine A3 receptor. Details: key: equipotent concentration ratio, NECA = 1. Conditions: ECR = equipotent concentration ratio relative to NECA = 1, inhibition of forskolin-stimulated SPAP production. The experiment is classed as cell-based. The method, then: as §1, §2, §3

As for `O[C@@H]1[C@H](O)[C@@H](c2nc(C3CC3)no2)O[C@H]1n1cnc2c(N[C@H]3CCC[C@@H]3O)ncnc21` [Example 19, (2S,3S,4R,5R)-2-(3-Cyclopropyl-[1,2,4]oxadiazol-5-yl)-5-[6-(2S-hydroxy-cyclopent-(S)-ylamino)-purin-9-yl]-tetrahydro-furan-3,4-diol], in experiment [1], the “Adenosine A1 receptor ECR*” value worked out at 5.15. Besides, the “Adenosine A3 receptor ECR*” value in experiment [2] was 172.

Take `CNS(=O)(=O)CCNc1ncnc2c1ncn2[C@@H]1O[C@H](c2nc(C(C)C)no2)[C@@H](O)[C@H]1O` [Example 54, 2-({9-[(2R,3R,4S,5S)-3,4-dihydroxy-5-(3-isopropyl-1,2,4-oxadiazol-5-yl)tetrahydrofuran-2-yl]-9H-purin-6-yl}amino)-N-methylethanesulfonamide]: the “Adenosine A1 receptor ECR*” value in experiment [1] came out at 20.78. Further, the “Adenosine A3 receptor ECR*” value in experiment [2] turned out to be 715.31.

For the compound `CC(C)(C)c1nnc([C@H]2O[C@@H](n3cnc4c(Nc5ccc(Cl)cc5F)ncnc43)[C@H](O)[C@@H]2O)o1` [Example 14, (2S,3S,4R,5R)-2-(5-tert-Butyl-[1,3,4]oxadiazol-2-yl)-5-[6-(4-chloro-2-fluoro-phenylamino)-purin-9-yl]-tetrahydro-furan-3,4-diol], the “Adenosine A1 receptor ECR*” value in experiment [1] was determined as 5.8. For the same compound, in experiment [2], the “Adenosine A3 receptor ECR*” value turned out to be 1066.71.

As for `CC(C)(C)c1nnc([C@H]2O[C@@H](n3cnc4c(Nc5ccc(F)cc5Cl)ncnc43)[C@H](O)[C@@H]2O)o1` [Example 116, (2S,3S,4R,5R)-2-[5-(tert-butyl)-1,3,4-oxadiazol-2-yl]-5-[6-(2-chloro-4-fluoroanilino)-9H-purin-9-yl]tetrahydrofuran-3,4-diol], the “Adenosine A1 receptor ECR*” value in experiment [1] came to 27.26. Moreover, the “Adenosine A3 receptor ECR*” value in experiment [2] was 955.

Consider `CCc1cc([C@H]2O[C@@H](n3cnc4c(NC(CC)CC)nc(Cl)nc43)[C@H](O)[C@@H]2O)no1.O=CO` [Example 163, (2R,3R,4S,5R)-2-{2-chloro-6-[(1-ethylpropyl)amino]-9H-purin-9-yl}-5-(5-ethylisoxazol-3-yl)tetrahydrofuran-3,4-diol Formate], for which, in experiment [1], the “Adenosine A1 receptor ECR*” value came out at 1.34. Besides, the “Adenosine A3 receptor ECR*” value in experiment [2] is 232.

For the compound `CCOC(=O)N1CCC(Nc2ncnc3c2ncn3[C@@H]2O[C@H](c3nc(C)no3)[C@@H](O)[C@H]2O)CC1` [Example 37, ethyl 4-({9-[(2R,3R,4S,5S)-3,4-dihydroxy-5-(3-methyl-1,2,4-oxadiazol-5-yl)tetrahydrofuran-2-yl]-9H-purin-6-yl}amino)piperidine-1-carboxylate], the “Adenosine A1 receptor ECR*” value in experiment [1] came out at 4.19. The “Adenosine A3 receptor ECR*” value in experiment [2] turned out to be 507.

With `CNS(=O)(=O)CCNc1ncnc2c1ncn2[C@@H]1O[C@H](c2ncc(C)o2)[C@@H](O)[C@H]1O` [Example 127, 2-({9-[(2R,3R,4S,5S)-3,4-dihydroxy-5-(5-methyl-1,3-oxazol-2-yl)tetrahydrofuran-2-yl]-9H-purin-6-yl}amino)-N-methylethanesulfonamide], the “Adenosine A1 receptor ECR*” value in experiment [1] worked out at 0.21. Further, in experiment [2], the “Adenosine A3 receptor ECR*” value worked out at 21.62.
